We go through 3 compounds from publication PMC6997118, “Long-acting CCK analogue NN9056 lowers food intake and body weight in obese Göttingen Minipigs” (International Journal of Obesity (2005), 2019).

On the set-up of series [1]: method as in PMID 7084608. The conditions noted are these: cited from earlier work.
Series [2] has as its target T1, porcine CCK-2 receptor (Sus scrofa, UniProt A0A287A2K5).
T1 construct: expressed in transfected cells; host or cells: COS-7
Kind of series: cell-based. The conditions noted are these: pig CCK-2 receptor in COS-7 cells, IP-One, n = 3; highest dose tested 100 nM; read-out: Activation Mean EC50.

For series [3], the target named is T2, porcine CCK-1 receptor (Sus scrofa, UniProt I3LFK5).
T2 construct: expressed in transfected cells; host or cells: COS-7
T2 sequence (I3LFK5 1-428): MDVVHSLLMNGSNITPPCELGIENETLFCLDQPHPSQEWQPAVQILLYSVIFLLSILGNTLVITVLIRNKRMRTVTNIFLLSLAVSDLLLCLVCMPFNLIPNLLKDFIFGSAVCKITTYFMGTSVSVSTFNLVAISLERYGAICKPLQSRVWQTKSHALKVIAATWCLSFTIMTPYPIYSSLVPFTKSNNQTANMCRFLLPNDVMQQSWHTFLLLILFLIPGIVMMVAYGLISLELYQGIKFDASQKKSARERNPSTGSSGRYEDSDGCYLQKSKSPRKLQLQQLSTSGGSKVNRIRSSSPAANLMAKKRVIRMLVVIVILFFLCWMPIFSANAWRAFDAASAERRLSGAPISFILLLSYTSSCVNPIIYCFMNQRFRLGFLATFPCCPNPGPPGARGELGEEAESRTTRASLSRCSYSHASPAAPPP
In words: cell-based. The conditions noted are these: pig CCK-1 receptor in COS-7 cells, IP-One, n = 3; read-out: Activation Mean EC50.

In series [4] the target is T2, porcine CCK-1 receptor. In words: biochemical. The conditions noted are these: pig CCK-1 receptor over-expressed in COS-7 cells, SPA, n = 3; read-out: Binding Mean IC50.
The conditions of series [5]: obese humans, after 24 weeks of treatment; cited from earlier work.

As usually defined, the EC50 is the concentration needed to bring the measured effect to its halfway point. By IC50 is commonly meant the midpoint of a concentration-inhibition curve.

T1 sequence (A0A287A2K5 whole entry): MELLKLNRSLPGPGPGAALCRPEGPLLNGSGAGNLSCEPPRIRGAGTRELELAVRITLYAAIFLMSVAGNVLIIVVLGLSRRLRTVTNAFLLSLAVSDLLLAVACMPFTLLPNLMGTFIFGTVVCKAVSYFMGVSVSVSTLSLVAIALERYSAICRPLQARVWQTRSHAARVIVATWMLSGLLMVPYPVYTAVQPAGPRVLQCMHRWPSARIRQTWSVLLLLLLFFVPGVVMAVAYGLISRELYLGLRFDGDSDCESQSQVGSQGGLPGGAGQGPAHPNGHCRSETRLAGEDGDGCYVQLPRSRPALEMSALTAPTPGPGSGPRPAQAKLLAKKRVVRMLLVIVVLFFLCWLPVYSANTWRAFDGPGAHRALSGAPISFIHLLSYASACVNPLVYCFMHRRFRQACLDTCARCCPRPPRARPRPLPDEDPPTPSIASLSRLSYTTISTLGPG

In the case of Cholecystokinin [CCK], the Circulating half-life in series [1] was less than 5 min.
With `CSCC[C@H](NC(=O)[C@H](Cc1ccc(OS(=O)(=O)O)cc1)NC(=O)[C@@H](N)CC(=O)O)C(=O)NCC(=O)N[C@@H](Cc1c[nH]c2ccccc12)C(=O)N[C@@H](CCSC)C(=O)N[C@@H](CC(=O)O)C(=O)N[C@@H](Cc1ccccc1)C(N)=O` [CCK-8], the figures for the EC50 in series [2] and in series [3] were 325 pM and 221 pM, respectively. In addition, in series [4], the 50% inhibitory concentration (IC50) is 199 pM.
`CC(C)N(C(=O)CN1C(=O)[C@H](NC(=O)Nc2cccc(C(=O)O)c2)C(=O)N(c2ccccc2)c2ccccc21)c1ccccc1` [GI181771X]: in series [5], the Weight loss entry was “failed to induce weight loss”.
